Laboratory results as given in PubChem BioAssay AID1404 (The Scripps Research Institute Molecular Screening Center, 2008).
Activity calls are given as the source filed them.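 The calls were made as follows: active = EC50 for STAT3 reporter activation at or below 10 µM; inactive = the rest.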

Each compound was assayed on U3A cells, IL-6 STAT3 luciferase reporter, luminescence (assay: STAT3 activators in IL-6-stimulated reporter cells, dose response, counter-screen for STAT1 activator project, U3A cells, STAT1-deficient, luminescence, IL-6 stimulus (AID 1404)).

| Compound | EC50 |
| --- | --- |
| Nc1ccccc1Nc1cc(-c2ccccc2)[nH]n1 | > 55.7 µM (inactive) |
| O=C(/C=C/c1ccco1)Nc1ccccn1 | > 55.7 µM (inactive) |
| c1ccc(CNc2ccc3ccccc3n2)nc1 | > 55.7 µM (inactive) |
| O=C(/C=C/Nc1ccc(F)cc1)c1ccc(Br)cc1 | > 55.7 µM (inactive) |
| Cc1ccc(/C=C/C(=O)Nc2ccccc2C(N)=O)cc1 | > 55.7 µM (inactive) |
| O=C(/C(C=Nc1ccc(F)cc1)=C(/O)c1ccco1)C(F)(F)F | > 55.7 µM (inactive) |
| O=C(c1ccccc1)c1ccc(N2CCCC2)cc1 | > 55.7 µM (inactive) |
| CN(C)c1nc(N)nc(CSc2nc3cc(Cl)ccc3o2)n1 | > 55.7 µM (inactive) |
| O=C(/C=C/c1cccc(F)c1)N1CCc2ccccc21 | > 55.7 µM (inactive) |
| CCCCOC(=O)Nc1nc2ccccc2s1 | > 55.7 µM (inactive) |
| Cc1ccc(C(=O)Nc2nc3ccccc3s2)s1 | > 55.7 µM (inactive) |
| Fc1ccc2nc(Nc3nc4cc5c(cc4s3)OCCO5)sc2c1 | > 55.7 µM (inactive) |
| Cc1cccc(Nc2n[nH]c(C)c2[N+](=O)[O-])c1 | > 55.7 µM (inactive) |
| CCOc1ccc2nc(N3CCOCC3)nc(C)c2c1 | > 55.7 µM (inactive) |
| CCNc1nc(-c2cc3ccccc3o2)cs1 | > 55.7 µM (inactive) |
| COc1ccc2nc(Nc3ccc4c(c3)OCO4)sc2c1 | > 55.7 µM (inactive) |
| Cc1nc2ccc3nc(NC(=O)c4ccco4)sc3c2s1 | > 55.7 µM (inactive) |
| COc1ccc(-c2cc(C)nc3c(-c4ccccc4)cnn23)cc1 | > 55.7 µM (inactive) |
| CC(=O)NC(=S)Nc1sc2c(c1C#N)CCCCC2 | > 55.7 µM (inactive) |
| CCOC(=O)CSc1nc(-c2ccncc2)ccc1C#N | > 55.7 µM (inactive) |
| CCCOC(=O)c1ccc(-c2ccc(C=O)o2)cc1 | > 55.7 µM (inactive) |
| O=C(/C=C/c1ccccc1)Nc1ccc(Cl)cn1 | > 55.7 µM (inactive) |

| Compound | EC50 |
| --- | --- |
| Clc1ccc(-n2ncc3c(NCC4CCCO4)ncnc32)cc1 (stereo unspecified) | > 55.7 µM (inactive) |
| Cc1ccc2nc(NC(=O)CCn3cccc3)sc2c1 | > 55.7 µM (inactive) |
| Cc1nc(-c2ccc(NC(=O)c3ccccc3C)cc2)cs1 | > 55.7 µM (inactive) |
| COc1ccc(-c2nc3ccc([N+](=O)[O-])cc3[nH]2)cc1 | > 55.7 µM (inactive) |
| Cc1ccc(C(=O)N2CCc3ccccc32)o1 | > 55.7 µM (inactive) |
| Cc1ccc(-c2cc3nc(C)cc(NCc4ccco4)n3n2)cc1 | > 55.7 µM (inactive) |
| O=C(/C(C=Nc1ccc(Br)cc1)=C(/O)c1ccco1)C(F)(F)F | > 55.7 µM (inactive) |
| Cc1ccc(NC(=O)Nc2ccc3oc(C)nc3c2)cc1 | > 55.7 µM (inactive) |
| NC(=O)Cc1ccc2sc(-c3ccccc3)nc2c1 | > 55.7 µM (inactive) |
| CCc1ccc(NC(=O)N2CCC(c3ccccc3)C2)cc1 (stereo unspecified) | > 55.7 µM (inactive) |
| COc1ccc(Nc2oc(-c3cccs3)nc2C#N)cc1 | > 55.7 µM (inactive) |
| Cc1nnc(SCC(=O)Nc2ccc(-c3nc4ccccc4s3)cc2)s1 | > 55.7 µM (inactive) |
| CCOC(=O)c1cnc2c(-c3ccccc3)cnn2c1N | > 55.7 µM (inactive) |
| c1csc(C2=NNC(=NC3CCCCC3)SC2)c1 | > 55.7 µM (inactive) |
| O=C(O)c1ccccc1C(=O)Nc1ccc(-c2csc(-c3ccccc3)n2)cc1 | > 55.7 µM (inactive) |
| COc1ccc(N/C=C\C(=O)c2ccc3c(c2)OCO3)cc1OC | > 55.7 µM (inactive) |
| C=CCNc1nc(-c2cc3ccccc3o2)cs1 | > 55.7 µM (inactive) |
| CCC(C)NC(=O)c1cc(-c2ccc(OC)cc2)on1 (stereo unspecified) | > 55.7 µM (inactive) |
| Nc1ncc(-c2cc3ccccc3oc2=O)s1 | > 55.7 µM (inactive) |
| O=C(NCCC1=CCCCC1)c1ccc(F)cc1 | > 55.7 µM (inactive) |
| Nc1ccc2nn(-c3ccccc3)nc2c1 | > 55.7 µM (inactive) |
| COc1ccc(-c2csc(N3C(=O)CNC3=S)n2)cc1 | > 55.7 µM (inactive) |

| Compound | EC50 |
| --- | --- |
| CC(C)Oc1ccc2c(=O)c(-c3ccccc3)coc2c1 | > 55.7 µM (inactive) |
| CCOC(=O)c1sc(NC(=O)c2sccc2C)cc1C | > 55.7 µM (inactive) |
| CCc1ccc(Nc2ncc3c(n2)CC(C)CC3=O)cc1 (stereo unspecified) | > 55.7 µM (inactive) |
| O=C(/C=C/c1ccc(F)cc1)Nc1nc2ccccc2[nH]1 | > 55.7 µM (inactive) |
| CN(C)c1ccnc2sc(C(=O)c3ccccc3)c(N)c12 | > 55.7 µM (inactive) |
| O=C(NC(=S)Nc1ccc(F)cc1)c1ccc2c(c1)OCCO2 | > 55.7 µM (inactive) |
| CC(=O)Nc1ccc(-c2csc(Nc3cccc(C)n3)n2)cc1 | > 55.7 µM (inactive) |
| O=[N+]([O-])c1ccccc1OCCCn1cnc2ccccc21 | > 55.7 µM (inactive) |
| COc1cc(NC(=O)c2csc3c2CCCC3)ncn1 | > 55.7 µM (inactive) |
| CC(=O)c1cccc(NC(=S)NC(=O)c2cccc(C)c2)c1 | > 55.7 µM (inactive) |
| CC(=O)COc1ccc2c(C)c(-c3ccccc3)c(=O)oc2c1 | > 55.7 µM (inactive) |
| Fc1ccccc1CSc1nnc(-c2cccnc2)o1 | > 55.7 µM (inactive) |
| O=C(Cn1cnc2ccccc2c1=O)c1ccc(Cl)cc1 | > 55.7 µM (inactive) |
| COc1ccc(-c2cc3ncc(-c4ccccc4)c(N)n3n2)cc1 | > 55.7 µM (inactive) |
| CC(=O)Nc1ccccc1C(=O)OCc1cccc(F)c1 | > 55.7 µM (inactive) |
| O=C(OCc1csc(-c2ccccc2)n1)c1cccs1 | > 55.7 µM (inactive) |
| CN1C(=O)/C(=C/C=C2\SCCN2C)SC1=S | > 55.7 µM (inactive) |
| O=C(NC(=S)Nc1ccccn1)c1ccc([N+](=O)[O-])cc1 | > 55.7 µM (inactive) |
| CCc1c(C)[nH]c(C(=O)OCc2ccccc2)c1C | > 55.7 µM (inactive) |
| COc1cccc(NC(=O)Nc2ccc(C(C)(C)C)cc2)c1 | > 55.7 µM (inactive) |
| C=CCn1c(C)cc(C(=O)CSc2nc3ccccc3o2)c1C | > 55.7 µM (inactive) |
| C=CCNC(=O)c1cc(-c2ccc(Br)cc2)on1 | > 55.7 µM (inactive) |

| Compound | EC50 |
| --- | --- |
| C/C(=C\c1ccccc1)C(=O)Nc1nccs1 | > 55.7 µM (inactive) |
| Cc1ccc(-c2cnc(-c3ccncc3)o2)cc1 | > 55.7 µM (inactive) |
| CC(C)(C)N=C1NN=C(c2cc3ccccc3o2)CS1 | > 55.7 µM (inactive) |
| c1cncc(-c2nc3cc4ccccc4cc3[nH]2)c1 | > 55.7 µM (inactive) |
| CCOCC(=O)Nc1nc2ccc(OCC)cc2s1 | > 55.7 µM (inactive) |
| CCOC(=O)/C(C#N)=C/c1cc(C)n(-c2ccccc2)c1C | > 55.7 µM (inactive) |
| Cc1cc(C(=O)NCCC2=CCCCC2)c(C)o1 | > 55.7 µM (inactive) |
| N#C/C(=C\c1ccc(N2CCOCC2)o1)c1nc2ccccc2[nH]1 | > 55.7 µM (inactive) |
| O=C(Nc1ccc2c(c1)OCCO2)c1ccc(Br)s1 | > 55.7 µM (inactive) |
| CCCCCNc1nc(-c2ccccc2)cs1 | > 55.7 µM (inactive) |
| COc1cccc(N/C=C/C(=O)c2ccc(Cl)cc2)c1 | > 55.7 µM (inactive) |
| Cc1ccc(C(=O)/C=C/Nc2cccc([N+](=O)[O-])c2)o1 | > 55.7 µM (inactive) |
| Cc1occc1C(=O)Nc1ccc2c(c1)CCC2 | > 55.7 µM (inactive) |
| O=C(/C=C/Nc1ccccc1F)c1ccc(Br)cc1 | > 55.7 µM (inactive) |
| Cc1ccc(/C=C/C(=O)N2CCCC(C)C2)cc1 (stereo unspecified) | > 55.7 µM (inactive) |
| COc1ccc2c(c1)oc(=O)c1cc(OC)ccc12 | > 55.7 µM (inactive) |
| CCOC(=O)c1ccc2nc(NC(C)=O)sc2c1 | > 55.7 µM (inactive) |
| CCN(CC)c1ccc2cc(C(=O)Nc3ccccn3)c(=O)oc2c1 | > 55.7 µM (inactive) |
| CC(=O)c1cccc(N/C=C\C(=O)c2ccc(C)cc2)c1 | > 55.7 µM (inactive) |
| O=C(Nc1nccs1)c1ccc(-c2ccc([N+](=O)[O-])cc2)o1 | > 55.7 µM (inactive) |
| COc1ccc2nc(Nc3nc(C)c(C(C)=O)s3)sc2c1 | > 55.7 µM (inactive) |
| Cc1ccc(-c2cc(N)n(-c3ccccc3)n2)cc1 | > 55.7 µM (inactive) |

| Compound | EC50 |
| --- | --- |
| Cc1ncsc1C(=O)Nc1nc2c(s1)CCCC2 | > 55.7 µM (inactive) |
| O=C(Nc1cccc(Cl)c1)c1ccc2c(=O)n3c(nc2c1)CCCCC3 | > 55.7 µM (inactive) |
| Nc1ccccc1C(=O)OCC(=O)N1CCc2ccccc21 | > 55.7 µM (inactive) |
| Nc1nc2ccc(-c3nc4ccccc4o3)cc2s1 | > 55.7 µM (inactive) |
| Nc1ccc2oc(-c3ccccc3Cl)nc2c1 | > 55.7 µM (inactive) |
| Cc1nc(-c2ccc(NC(=O)c3ccccc3Br)cc2)cs1 | > 55.7 µM (inactive) |
| Cc1nc2ccc(-c3nc4ccccc4o3)cc2[nH]1 | > 55.7 µM (inactive) |
| C=CCNC(=S)NNC(=O)COc1ccc2cc(Br)ccc2c1 | > 55.7 µM (inactive) |
| CN(C)c1ccc(C(=O)OCC(=O)c2cccs2)cc1 | > 55.7 µM (inactive) |
| O=C(Nc1ccc(-c2nc3cccnc3s2)cc1)c1ccco1 | > 55.7 µM (inactive) |
| CC(C)=CC(=O)Nc1nc2ccc([N+](=O)[O-])cc2s1 | > 55.7 µM (inactive) |
| Clc1ccc(-n2ncc3c(N4CCCC4)ncnc32)cc1 | > 55.7 µM (inactive) |
| Cc1ccc(C(=O)Nc2nc3c(s2)CCCC3)o1 | > 55.7 µM (inactive) |
| COc1ccc(NC(=S)Nc2ccc3nccnc3c2)cc1 | > 55.7 µM (inactive) |
| COc1ccc2[nH]c3c(c2c1)CCn1c-3nc2ccccc2c1=O | > 55.7 µM (inactive) |
| O=C(CCc1nnc(CCCc2ccccc2)o1)N1CCCCCC1 | > 55.7 µM (inactive) |
| COc1ccc(/C=C/C(=O)Nc2ccccc2)cc1OC | > 55.7 µM (inactive) |
| CC(=O)Nc1cccc(-c2cnc3ccccc3n2)c1 | > 55.7 µM (inactive) |
